{"source": "patent US20080160617A1", "about": "“AGENT FOR INDUCING EMBRYONIC STEM CELL TO ECTODERMAL CELL, METHOD FOR OBTAINING THE SAME, AND USE OF THE SAME” (KYOWA HAKKO KOGYO CO., LTD., priority 2001, published 2008)", "key": {"embryonic stem cell": {"test_system": "embryonic stem cell", "settings": "cited from earlier work"}, "ES cell EB5 [1]": {"test_system": "ES cell EB5", "experiment": "Nerve differentiation of ES cell EB5 by solution recovered from PA6 cell with polyanion-containing Hanks' balanced salt solution (SDIA activity)", "assay_type": "cell-based, mouse", "settings": "14 days", "method": "ES cell EB5 (H. Niwa et al., Nature Genet., 24, 372 (2000); obtained from Dr. Hitoshi Niwa at the Molecular Control Medical Science Course, Medical School, Osaka University) was used as the embryonic stem cell, and an MC3T3-G2/PA6 cell (H. Kodama et al., J. Cell Physiol., 112) 89 (1982), hereinafter referred to as “PA6 cell”) as the stromal cell, and the ES cell EB5 was cultured in accordance with the method described in Reference Example 1 and used in the test.\nCells of PA6 cultured to almost confluent state on a dish of 10 cm in diameter were washed twice with 10 ml of PBS(−) (manufactured by Invitrogen) and once with 10 ml of Hanks' balanced salt solution (manufactured by Invitrogen), 3 ml of Hanks' balanced salt solution containing from 0.001% (w/v) to 0.1% (w/v) of heparin (manufactured by Nacalai Tesque) was added thereto, the mixture was allowed to stand at 37° C. for 30 minutes, and the solution was recovered. The solution obtained was added to the PA6 on the 10 cm, dish washed in the same manner described above, the mixture was allowed to stand at 37° C. for 30 minutes in the same manner, and then the solution was recovered. This process was carried out on PA6 on the other 10 cm dish, and effect of the recovered solution ES cell was examined. In this case, a solution recovered in the same manner by using a heparin-free Hanks' balanced salt solution was used as a negative control.\nThe solution obtained in the above was mixed at a ratio of 1:2 with a solution containing the ES cell EB5 which had been adjusted to a single cell state in a serum-free medium by the method described in Reference Example 1, and the mixture was inoculated into a gelatin-coated plastic culture dish at a cell density of 1,250 cells/cm^2 and incubated at 37° C. for 14 days in a CO2 incubator in an atmosphere of 5% carbon dioxide.\nThe cells after the culturing were fixed by 4% paraformaldehyde solution and subjected to immune staining in accordance with the method described in Using Antibodies, Cold Spring Harbor Laboratory Press (1999), using an anti-NCAM antibody (manufactured by Chemicon) as a general nerve marker, an anti-class III β-tubulin antibody (manufactured by Babco) as a nerve-specific marker and an anti-nestin antibody (manufactured by Pharmingen) as a nerve precursor cell-specific marker.\nCompounds other than heparin with which the SDIA activity factor can be recovered were searched by the method for recovering an SDIA activity factor described in Example 1. Using a Hanks' balanced salt solution containing, instead of heparin, 0.001% (w/v) dextran sulfate (manufactured by Sigma), 0.001% (w/v) polyvinyl sulfate (manufactured by Sigma), 0.001% (w/v) polystyrene sulfonate (manufactured by Tosoh) 0.1% (w/v) carboxymethylcellulose (manufactured by, Wako Pure Chemical Industries) or 0.1% (w/v) hyaluronic acid (manufactured by Kibun Chemical Foods), respective solutions were recovered by the method described in Example 1 to examine their effects on the ES cell. In this case, a solution recovered in the same manner by using a heparin-free Hanks' balanced salt solution was used as a negative control."}, "ES cell EB5 [2]": {"test_system": "ES cell EB5", "experiment": "Heparin treatment of PA6 feeder cell before paraformaldehyde fixation, nerve differentiation of ES cell EB5", "assay_type": "cell-based, mouse", "settings": "PA6 cell cultured 2 days in medium containing 200 ng/ml heparin, then paraformaldehyde-fixed; 8 days coculture", "method": "According to the method described in Reference Example 3, the ES cell EB5 was cultured for 8 days in the serum-free medium without BMP4 by using the paraformaldehyde-fixed PA6 cell as a feeder cell. Also, the case when the PA6 cell was cultured in a medium containing heparin (GIBCO BRL) (hereinafter referred to as “heparin treatment”) was compared with the case when culturing in a heparin-free medium. That is, dishes in which the PA6 cell proliferated to almost confluent on a 3 cm tissue culture dish was cultured for 2 days in a medium containing 200 ng/ml of heparin and dishes in which it was cultured for 2 days in a heparin-free medium were prepared, washed twice with PBS(−) and subjected to paraformaldehyde fixation, and the ES cell EB5 was inoculated onto the paraformaldehyde-fixed PA6 cell at a density of 200 cells/dish, the medium was exchanged with a fresh medium on the 4th, 6th and 7th days, and then the cells were cultured at 37° C. for 8 days in a stream of 5% carbon dioxide in a CO2 incubator.\nEight days after coculturing, the cells were fixed according to the method described in Reference Example 1, and the colonies formed as a result of the coculturing of the ES cell EB5 with PA6 cell were immunologically stained with the anti-NCAM antibody, anti-tubulin antibody and anti-nestin antibody."}, "[3]": {"settings": "solution recovered from PA6 cell with Hanks' solution containing 0.1% (w/v) polyanion instead of heparin"}, "[4]": {"settings": "solution recovered from PA6 cell with Hanks' solution containing 0.001% (w/v) polyanion instead of heparin"}}}
{"substance": "EGF: epidermal growth factor", "values": [{"measurement": "SDIA-like activity to induce differentiation of embryonic stem cell into ectoderm system cells", "setting": "embryonic stem cell", "result": "no SDIA-like activity"}]}
{"substance": "HGF: hepatocyte growth factor", "values": [{"measurement": "SDIA-like activity to induce differentiation of embryonic stem cell into ectoderm system cells", "setting": "embryonic stem cell", "result": "no SDIA-like activity"}]}
{"substance": "LIF: leukemia inhibitory factor", "values": [{"measurement": "SDIA-like activity to induce differentiation of embryonic stem cell into ectoderm system cells", "setting": "embryonic stem cell", "result": "no SDIA-like activity"}]}
{"substance": "PDGF", "values": [{"measurement": "SDIA-like activity to induce differentiation of embryonic stem cell into ectoderm system cells", "setting": "embryonic stem cell", "result": "no SDIA-like activity"}]}
{"substance": "bFGF: basic fibroblast growth factor", "values": [{"measurement": "SDIA-like activity to induce differentiation of embryonic stem cell into ectoderm system cells", "setting": "embryonic stem cell", "result": "no SDIA-like activity"}]}
{"substance": "carboxymethylcellulose", "values": [{"measurement": "ratio of colonies expressing class III β-tubulin", "setting": "ES cell EB5 [1]; [3]", "result": 34.6, "unit": "%"}]}
{"substance": "dextran sulfate", "values": [{"measurement": "ratio of colonies expressing class III β-tubulin", "setting": "ES cell EB5 [1]; [4]", "result": 67.2, "unit": "%"}]}
{"substance": "heparin", "values": [{"measurement": "ratio of colonies expressing class III β-tubulin", "setting": "ES cell EB5 [1]; solution recovered from PA6 cell with Hanks' balanced salt solution containing 0.001% (w/v) heparin, mixed 1:2 with ES cell EB5", "result": 68, "unit": "%"}, {"measurement": "differentiation of ES cell into nerve cell on heparin-treated PA6 feeder cell", "setting": "ES cell EB5 [2]", "result": "significant differentiation of ES cell into nerve cell was not observed"}]}
{"substance": "hyaluronic acid", "values": [{"measurement": "ratio of colonies expressing class III β-tubulin", "setting": "ES cell EB5 [1]; [3]", "result": 19.8, "unit": "%"}]}
{"substance": "polystyrene sulfonate", "values": [{"measurement": "ratio of colonies expressing class III β-tubulin", "setting": "ES cell EB5 [1]; [4]", "result": 48.7, "unit": "%"}]}
{"substance": "polyvinyl sulfate", "values": [{"measurement": "ratio of colonies expressing class III β-tubulin", "setting": "ES cell EB5 [1]; [4]", "result": 54.8, "unit": "%"}]}
